The nature of this assay: Inhibitory concentration against polymerization in A17 double mutant HIV-1 RT using a template primer of poly rC/dG12-18 and [3H]dGTP.

On to `O=C(OC1COc2cc(O)ccc2C1)c1ccc(O)c(O)c1O` (stereo not drawn) [2,3,4-Trihydroxy-benzoic acid 7-hydroxy-chroman-3-yl ester], for which 30.8 µM corresponded to half-maximal inhibition (IC50). As for `O=C(OC1COc2ccccc2C1)c1ccc(O)c(O)c1O` (stereo not drawn) [2,3,4-Trihydroxy-benzoic acid chroman-3-yl ester], the figure is > 100 µM; as for `O=C(OC1COc2cc(O)cc(O)c2C1)c1cccc(O)c1O` (stereo not drawn) [2,3-Dihydroxy-benzoic acid 5,7-dihydroxy-chroman-3-yl ester], > 100 µM.

The values are drawn from BindingDB's records for doi:10.1016/s0960-894x(01)00577-7 (University of Toledo, 2001).
